The assay relates to OCI-AML5 cells. Nature of the assay: Dose-response proliferative assay in OCI-AML5 (4 days, CellTiterGlo). It is filed as cell-based, H. sapiens. The settings on record: Homo sapiens, OCI-AML-5, 96 h, 4 days incubation; read-out: IC50 OCI-AML5. An outline of the steps:
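Viability assessed after 4 days of compound exposure at 37 °C, 5% CO2. Compounds tested as 8 dilutions (1:4, 10 μM to 0.5 nM) on 300 OCI-AML5 cells/well grown in αMEM with 10% heat-inactivated FBS and 10 ng/mL GM-CSF.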
In general terms: In ATP-based viability assays light output follows the ATP content of the culture.

For orientation: IC50 means the concentration that gives 50% inhibition. On to `CN(CCOCCOCCN)c1ccc(CC(=O)Nc2ncc(SCc3cccnc3)s2)cc1` [UOM-005790], for which the IC50 turned out to be 680 nM.

These data come from paper PMC12152147, “DDB1 engagement defines the selectivity of S656 analogs for cyclin K degradation over CDK inhibition” (EMBO Reports, 2025).
